# What was measured:
# YhOCT3 = molecular target: T1, YhOCT3 (Homo sapiens, UniProt O75751); experiment: radioligand uptake inhibition assay ([3H]MPP+); type: cell-based; conditions: for IC50: HEK293 stably expressing YhOCT3, 50 nM [3H]MPP+, mean and SD, N = 3-6, read-out: IC50, uptake inhibition at OCT3 (YhOCT3); for Hill coefficient nH at OCT3: uptake inhibition curve
# T1 construct: expressed in transfected cells
# T1 sequence (O75751 1-556): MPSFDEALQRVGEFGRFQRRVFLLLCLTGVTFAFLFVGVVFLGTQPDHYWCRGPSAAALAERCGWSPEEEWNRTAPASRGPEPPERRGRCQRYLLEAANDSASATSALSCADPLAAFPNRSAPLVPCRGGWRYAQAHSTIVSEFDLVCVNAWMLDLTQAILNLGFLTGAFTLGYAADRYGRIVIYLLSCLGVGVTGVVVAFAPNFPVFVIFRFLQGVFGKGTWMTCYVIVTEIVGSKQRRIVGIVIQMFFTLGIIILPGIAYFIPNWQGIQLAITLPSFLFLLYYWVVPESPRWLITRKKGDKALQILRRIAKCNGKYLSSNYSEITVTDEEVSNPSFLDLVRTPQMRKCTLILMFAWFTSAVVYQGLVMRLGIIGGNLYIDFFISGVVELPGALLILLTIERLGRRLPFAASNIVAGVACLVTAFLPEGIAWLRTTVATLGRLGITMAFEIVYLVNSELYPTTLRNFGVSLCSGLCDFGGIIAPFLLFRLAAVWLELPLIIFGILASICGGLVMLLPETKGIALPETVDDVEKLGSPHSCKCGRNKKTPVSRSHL
# Description: (§1) 1. Biological characterization
# (§2) 1.1. Experimental methods
# (§3) Buffer and solution compositions (in mM) are as follows:
# (§4) Krebs-HEPES buffer (KHB): 120 NaCl, 3 KCl, 2 CaCl2, 2 MgCl2, 20 glucose, 10 HEPES NaOH, pH = 7.3 – 7.4. […]
# (§5) 10 mM glucose, 1.25 mM NaH2PO4, pH = 7.4 (oxygenated with 95% O2, 5% CO2).
# (§6) Human embryonic kidney 293 cells (HEK293) stably expressing the mCherry-tagged, YFP-tagged, and GFP-tagged human isoforms of SERT (mCherry-SERT, YhSERT, GhSERT), DAT (YhDAT), NET (hNET), and OCT3 (YhOCT3) were cultured in Dulbecco's modified Eagle's medium (DMEM) with high glucose (4.5 g/L) and l-glutamine (584 mg/L), supplemented with 10% fetal calf serum (FCS), 100 units/mL penicillin and 100 µg/mL streptomycin. The cells were cultured in a humidified atmosphere (37 °C, 5% CO2). Geneticin (50 µg/mL), Blasticidin (6 µg/mL), and Zeocin® (150 µg/mL) were added to maintain the selection pressure for the stable cell lines. Cells were typically seeded 24 hours prior to the experiments.
# (§7) For uptake inhibition experiments, cells were seeded at 3.6 x 10^4 cells/0.2 mL into 96-well plates coated […]
# (§8) with poly-d-lysine (PDL). […]
# (§9) For uptake inhibition experiments, the cell medium was aspirated and the cells were washed once with 0.2 mL/well KHB at room temperature. The cells were pre-incubated with increasing concentrations of the substance of interest, diluted in KHB (0.05 mL/well). The pre-incubation solution was replaced with 0.05 mL/well KHB solution still containing the substance of interest and additionally the tritiated substrate (100 nM [3H]DA for YhDAT; 100 nM [3H]5HT for YhSERT; 20 nM and 50 nM [3H]MPP+ for hNET and YhOCT3), after 6 minutes (YhSERT), 5 minutes (YhDAT, hNET), or 10 minutes (YhOCT3). Substrate uptake was stopped after one minute (for [3H]DA and [3H]5HT), three minutes, or […]
# (§10) The KHB was aspirated immediately. […] Non-specific uptake was determined in the presence of 30 µM paroxetine (for YhSERT), 50 µM GBR12909 (for YhDAT and hNET), or 100 µM decynium-22 (for YhOCT3). […]
# (§11) [3H]-imipramine, and increasing concentrations of test compound, for 60 min at 20 – 22 °C. […] The amount of radioactivity in the filters was measured using a Tri-Carb 2800TR liquid scintillation analyzer (PerkinElmer). The Ki was calculated from the measured IC50 using the Cheng-Prusoff equation.
# (§12) Prior to imaging, cell culture medium was replaced with pre-warmed KHB. […] PyrAtes were excited using a 405 nm laser, and its fluorescent signals collected using 525/50 nm emission filters; mCherry was excited using a 561 nm laser, and fluorescence was collected using 595/50 nm emission filters. […]
# (§13) 5HT-mediated currents were measured at room temperature (20-25°C) using whole-cell patch clamp in HEK293 cells stably expressing SERT. […]
# YhDAT = molecular target: T2, YhDAT (Homo sapiens, UniProt Q01959); experiment: radioligand uptake inhibition assay ([3H]DA); type: cell-based; conditions: for IC50: HEK293 stably expressing YhDAT, 100 nM [3H]DA, mean and SD, N = 3-6, read-out: IC50, uptake inhibition at DAT (YhDAT); for Hill coefficient nH at DAT: uptake inhibition curve
# T2 construct: expressed in transfected cells
# T2 sequence (Q01959 whole entry): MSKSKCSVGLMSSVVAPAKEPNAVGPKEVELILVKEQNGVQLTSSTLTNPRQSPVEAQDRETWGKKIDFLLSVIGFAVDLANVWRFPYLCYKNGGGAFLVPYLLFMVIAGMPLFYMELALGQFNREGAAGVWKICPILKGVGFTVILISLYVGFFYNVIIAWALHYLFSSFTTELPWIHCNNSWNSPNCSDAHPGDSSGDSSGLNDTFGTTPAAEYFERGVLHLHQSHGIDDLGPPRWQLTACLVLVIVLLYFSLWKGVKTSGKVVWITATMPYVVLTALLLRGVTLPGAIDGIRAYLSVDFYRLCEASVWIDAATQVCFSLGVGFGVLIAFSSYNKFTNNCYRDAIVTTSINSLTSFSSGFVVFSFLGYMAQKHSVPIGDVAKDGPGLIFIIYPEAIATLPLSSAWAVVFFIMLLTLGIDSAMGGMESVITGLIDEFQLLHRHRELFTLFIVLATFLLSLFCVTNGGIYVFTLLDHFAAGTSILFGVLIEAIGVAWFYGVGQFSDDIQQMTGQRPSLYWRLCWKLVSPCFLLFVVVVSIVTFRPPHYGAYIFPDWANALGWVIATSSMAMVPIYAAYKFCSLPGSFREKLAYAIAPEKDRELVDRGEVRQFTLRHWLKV
# Description: as §1, §2, §3, §4, §5, §6, §7, §8, §9, §10, §11, §12, §13
IC50 (YhOCT3),Hill coefficient nH at OCT3 (YhOCT3),IC50 (YhDAT),Hill coefficient nH at DAT (YhDAT),Structure (SMILES)
3.32 µM,−2.1,3.57 µM,−1.3,"CCN(CC)c1ccc(-c2cc[n+]3c(-c4ccccc4)c(N4CCCC4)n(CCCC(=O)NCc4ccc5c(c4)CO[C@@]5(CCCN(C)C)c4ccc(F)cc4)c3c2)cc1 [PYR-C3-CIT, PyrAte-C3-(S)-citalopram]"
2.1 µM,−2.3,2.05 µM,−1.5,"CCN(CC)c1ccc(-c2cc[n+]3c(-c4ccccc4)c(N4CCCC4)n(CCCCCCC(=O)NCc4ccc5c(c4)CO[C@@]5(CCCN(C)C)c4ccc(F)cc4)c3c2)cc1 [PYR-C6-CIT, PyrAte-C6-(S)-citalopram]"

# — paper PMC11891579, “Fluorescent PyrAte-(S)-citalopram conjugates enable imaging of the serotonin transporter in living tissue” (Chemical Science, 2025)
